According to PMC6463023, “Epigenetic Changes at the Birc5 Promoter Induced by YM155 in Synovial Sarcoma” (Journal of Clinical Medicine, 2019):

Legend:
[1] = tested on: Birc5 promoter; experiment: ChIP-qPCR of histone marks at the Birc5 promoter in treated mouse synovial sarcomas; assay type: in vivo; conditions: mouse synovial sarcomas treated 11 days, vs controls
Experimental: (§1) Mice had tumors initiated at 1 month of age. Tumors developed for the next 6 months allowing tumor volumes to reach 500–1000 mm^3. Mice were then subjected to daily intraperitoneal injections of 20 mg/kg of YM155 for 11 days. One mouse with bilateral tumors was censored at day 7. Tumors were measured using digital calipers and volumes were calculated using the equation (L∗W^2)/2. A small portion of the tumor was fixed in 4% paraformaldehyde overnight and then embedded in paraffin. The rest of the tumor was flash frozen in liquid nitrogen and stored at −80 °C until further use.
Mouse tumors were pulverized in a Covaris tissueTUBE attached to a Covaris glass tube (13 × 65 mm) using a hammer and an aluminum block on dry ice. Samples were intermittently placed in liquid nitrogen to maintain molecular interactions. The powderized tissue was resuspended in PBS + protease inhibitors (Sigma, 11836153001, St. Louis, MO, USA) and fixed in 1% formaldehyde for 10 min at room temperature. The cross linking was quenched by adding 125 mM glycine. Samples were washed three times using cold PBS and cold centrifugation at 1000× g for 5 min. Similarly, cells can be fixed in 1% formaldehyde and washed while cells are still adherent to the bottom of the tissue culture dish. […]

[2] = parameters: method as in PMID 18824702; conditions: patients, clinical trials; cited from earlier work
[3] = tested on: caspase 3/7; experiment: Caspase-Glo 3/7 activity in HS-SY-II cells; assay type: cell-based, human; conditions: 24 h incubation
Experimental: (§2) Cells were seeded in a 96-well tissue culture dish at 1 × 10^4 cells per well. Twenty-four hours after seeding, serial dilutions of YM155 were applied so that the final concentration ranged from 10 μM to 1 nM. Between 24 to 48 h, MTT at 5 mg/mL was applied, and the cells were allowed to incubate at 37 °C and 5% CO2 for 2.5 h. Formazan crystals were resolubilized in 10% SDS and 0.01 M HCl. Absorbance was measured at 570 nm and normalized to 650 nm. Caspase activity was measured using the Caspase-Glo 3/7 and Caspase-Glo 8 (Promega, G8090, and G8200) assay systems. The manufacturer’s instructions were followed for a 96-well plate assay.

[4] = tested on: synovial sarcomas expressing Rosa26-LSL-SS18-SSX2; experiment: Tumor growth in genetically engineered mouse model of synovial sarcoma; assay type: in vivo
Experimental: Mouse experiments were conducted with the approval of the University of Utah’s Institutional Animal Care Committee in accordance with legal and ethical standards established by the National Research Council and published in the Guide for the Care and Use of Laboratory Animals (protocol # 14-01016). The previously described Rosa26-LSL-SS18-SSX2 mice were maintained on a mixed strain background, C57BL/6 and SvJ. Mice were genotyped with the following primers: Rosa26-LSL-SS18-SSX2 (F flox-[…], F wt–[…]-TGG, R-[…]). TATCre was dosed by 10 μL intramuscular injections at 50 μM at 1 month of age.
as §1
The control mice group with tumor was compared to the YM155 treated tumor group in a single factor ANOVA statistical test. For most comparisons between control and YM155 treated synovial sarcomas, Student’s t-tests were performed.

[5] = tested on: HS-SY-II human synovial sarcoma cell line; experiment: MTT viability assay, HS-SY-II cells, 24 h; assay type: cell-based; conditions: 24 h viability assay
Experimental: as §2, with “The human SYO-1, Yamato, and HS-SY-II cell lines were received from Torsten Nielsen at the University of British Columbia. The MoJo cell line was developed as previously described from a consented patient’s synovial sarcoma. Each was maintained in Dulbecco’s modified Eagle medium (DMEM) with 10% fetal bovine serum (FBS) and tested for mycoplasma using MycoAlert Plus (Lonza, Walkersville, MD, USA) every 6 months. Cells” for “Cells”

[6] = tested on: BIRC5 promoter; experiment: ChIP-qPCR of histone marks at the BIRC5 promoter in HS-SY-II cells; assay type: cell-based, human; conditions: 0.2 μM YM155, 24 h, vs controls
Experimental: (§3) Mouse tumors were pulverized in a Covaris tissueTUBE attached to a Covaris glass tube (13 × 65 mm) using a hammer and an aluminum block on dry ice. Samples were intermittently placed in liquid nitrogen to maintain molecular interactions. The powderized tissue was resuspended in PBS + protease inhibitors (Sigma, 11836153001, St. Louis, MO, USA) and fixed in 1% formaldehyde for 10 min at room temperature. The cross linking was quenched by adding 125 mM glycine. Samples were washed three times using cold PBS and cold centrifugation at 1000× g for 5 min. Similarly, cells can be fixed in 1% formaldehyde and washed while cells are still adherent to the bottom of the tissue culture dish. Cells in both cases were lysed using cold Farnham cell lysis buffer (5mM PIPES pH 8.0, 85 mM KCl, 0.5% NP-40) with protease inhibitors by incubating on ice for 10 min. Cells were collected and dounced with a glass tube and rod 20 times with a loose rod and 10 times with a tight rod. Samples were filtered through 70 μm filter and centrifuged at 1000× g for 10 min. The supernatant was removed and 1 mL of RIPA lysis buffer (1% NP-40, 0.5% Na deoxycholate, 0.1% SDS/PBS) was added for every 300 mg of tissue or 1 × 10^7 cells and incubated on ice for 10 min. Sonication proceeded in the following manner: 1 mL aliquots were sonicated with a 30 s on and 30 s off cycle for 8 cycles totaling 4 min of sonication time. Sonicated samples were centrifuged at 1400 rpm for 5 min and the supernatant was kept for chromatin immunoprecipitation.
Dynabeads (Invitrogen, 11204D, Carlsbad, CA, USA) were washed in 0.5 mg/mL BSA/PBS three times on a magnet. Sonicated samples were precleared with 30 μL of beads for 1 h at 4 °C. After preclearing, 50 μL of the sample was set aside as the input DNA. Supernatants were transferred to a new tube and 5 μg of primary antibodies were added and incubated overnight at 4 °C. The following antibodies were used for immunoprecipitation. […]

[7] = tested on: caspase 8; experiment: Caspase-Glo 8 activity in HS-SY-II cells; assay type: cell-based, human; conditions: 24 h incubation
Experimental: as §2

[8] = tested on: survivin; experiment: Survivin immunoblot of treated mouse synovial sarcomas; assay type: in vivo; conditions: mouse sarcomas after 11 days of YM155; p = 0.034
Experimental: as §1
(§4) Protein was isolated from cells or tissues by incubating in a mild lysis buffer (10 mM Tris-HCl pH 8.1, 10 mM NaCl, 0.5% NP-40, and proteinase inhibitors). The fractions were clarified at 14,000 rpm for 10 min before loading 25–50 μg/sample for gel electrophoresis and transfer to PVDF membrane. Western blots were probed with the following primary antibodies: anti-Survivin (Cell Signaling Technology, 2808, 1:1000), anti-NFκB/p65 (Cell Signaling Technology, 8242, 1:800) anti-GAPDH (Proteintech, 10494-1-AP, 1:1000). The immunoblots were probed secondarily with goat anti-rabbit antibodies conjugated with horse radish peroxidase and bands were detected using Bio-Rad Gel Doc MP imaging station.

[9] = tested on: synovial sarcoma; experiment: YM155 in combination with BCL2 inhibitors
[10] = tested on: Yamato human synovial sarcoma cell line; experiment: MTT viability assay, Yamato cells, 48 h; assay type: cell-based; conditions: 48 h treatment
Experimental: as §2, with “The human SYO-1, Yamato, and HS-SY-II cell lines were received from Torsten Nielsen at the University of British Columbia. The MoJo cell line was developed as previously described from a consented patient’s synovial sarcoma. Each was maintained in Dulbecco’s modified Eagle medium (DMEM) with 10% fetal bovine serum (FBS) and tested for mycoplasma using MycoAlert Plus (Lonza, Walkersville, MD, USA) every 6 months. Cells” for “Cells”

[11] = tested on: Mojo human synovial sarcoma cell line; experiment: MTT viability assay, MoJo cells, 48 h; assay type: cell-based; conditions: 48 h treatment
Experimental: as §2, with “The human SYO-1, Yamato, and HS-SY-II cell lines were received from Torsten Nielsen at the University of British Columbia. The MoJo cell line was developed as previously described from a consented patient’s synovial sarcoma. Each was maintained in Dulbecco’s modified Eagle medium (DMEM) with 10% fetal bovine serum (FBS) and tested for mycoplasma using MycoAlert Plus (Lonza, Walkersville, MD, USA) every 6 months. Cells” for “Cells”

[12] = tested on: NFκB; experiment: NFκB immunoblot of treated mouse synovial sarcomas; assay type: in vivo; conditions: mouse sarcomas after 11 days of YM155; p = 0.015
Experimental: as §1, §4

[13] = tested on: NFκB binding to the BIRC5 promoter; experiment: ChIP-qPCR for NFκB at the BIRC5 promoter in HS-SY-II cells; assay type: cell-based, human; conditions: 0.2 μM YM155, 24 h, vs control, p = 0.32
Experimental: as §3, with “Sonicated samples were centrifuged at 1400 rpm for 5 min and the supernatant was kept for chromatin immunoprecipitation.” left out

[14] = tested on: SYO-1 human synovial sarcoma cell line; experiment: MTT viability assay, SYO-1 cells, 48 h; assay type: cell-based; conditions: 48 h treatment
Experimental: as §2, with “The human SYO-1, Yamato, and HS-SY-II cell lines were received from Torsten Nielsen at the University of British Columbia. The MoJo cell line was developed as previously described from a consented patient’s synovial sarcoma. Each was maintained in Dulbecco’s modified Eagle medium (DMEM) with 10% fetal bovine serum (FBS) and tested for mycoplasma using MycoAlert Plus (Lonza, Walkersville, MD, USA) every 6 months. Cells” for “Cells”

[15] = tested on: BIRC5; experiment: BIRC5 transcript level by PCR normalized to GAPDH; assay type: cell-based, human; conditions: HS-SY-II, 24 h, normalized to GAPDH mRNA; p = 0.0006
[16] = Body weight of mice during YM155 treatment; assay type: in vivo, mouse; conditions: 20 mg/kg daily for 11 days
Experimental: as §1

[17] = tested on: survivin; parameters: method as in PMID 20816704; conditions: cited from earlier work

## COCCn1c2c([n+](Cc3cnccn3)c1C)C(=O)c1ccccc1C2=O [YM155, sepantronium bromide]
[1]; p = 0.045
  H3K27me3 at the Birc5 promoter (ChIP-qPCR): elevated levels
[1]; p = 0.14
  H3K27ac at the Birc5 promoter (ChIP-qPCR): elevated levels
[2]
  dose associated with adverse events: above 4.8 mg/m^2/day
[3]
  caspase 3/7 activity: increased with higher concentrations
[4]; 20 mg/kg daily intraperitoneal for 11 days, control tumors 1.78-fold increase, p = 0.028
  decrease of tumor growth (mean) over 11 days: 17%
[4]; treated mice with synovial sarcoma
  reduction in tumor volume compared to control treated mice: 50%
[5]
  EC50: 2640 ± 140 nM
[6]
  H3K4me1 at the BIRC5 promoter (ChIP-qPCR): a decrease
  H3K27ac at the Birc5 promoter (ChIP-qPCR): elevated levels
  H3K27me3 at the Birc5 promoter (ChIP-qPCR): elevated levels
[7]
  caspase 8 activity: increased with higher concentrations
[8]
  survivin protein level (immunoblot, normalized to GAPDH): striking decrease
[9]
  synergy of combination with BCL2 inhibitors: minimally synergistic
[10]
  EC50: 22 nM
[11]
  EC50: 62 nM
[12]
  NFκB protein level (immunoblot, normalized to GAPDH): striking increase
[13]
  binding of NFκB to the BIRC5 promoter (ChIP-qPCR): unable to detect a difference
[14]
  EC50: 103 nM
[15]
  reduction in normalized BIRC5 expression: 39.5%
[16]
  weight loss in treated mice: no detectable weight loss

## Cc1ccc(S(=O)(=O)/C=C/C#N)cc1 [BAY 11-7082]
[17]
  survivin levels upon inhibition of NFκB: decrease in survivin levels
